In US20240391901A1, “SUBSTITUTED HETEROCYCLIC COMPOUND CONTAINING ALPHA-KETONE FRAMEWORK, AND USE THEREOF” (CHINA PHARMACEUTICAL UNIVERSITY, priority 2021, published 2024):
pIC50: −log10 of the molar value.

How the values were obtained:
SD rats [1] = test: Sucrose preference test, chlorpromazine-induced depression model; type: in vivo
Description: (§1) Male SD rats weighing between 180 g to 200 g were randomly divided into 6 groups, with 8 rats in each group, as follows: Normal group; Chlorpromazine group; Positive control group (Amitriptyline, 6 mg/kg); I-11 low dose group (3 mg/kg); I-11 medium dose group (6 mg/kg); I-11 high dose group (12 mg/kg); In the normal group, rats were maintained under normal conditions. In other groups, rats were intraperitoneally injected with chlorpromazine (0.2 mg/kg) once a day for three days to induce the model. After successful modeling, the respective drugs were administered according to the group. After two weeks of continuous administration, sucrose consumption test, open field test, and forced swimming test were conducted sequentially. The American Psychiatric Association considers a significant feature of depression to be the decrease in reward responsiveness, indicating a loss of pleasure. The sucrose preference test is a well-established measure for assessing reward responsiveness in experimental animals.

SD rats [2] = test: Forced swimming test, chlorpromazine-induced depression model; type: in vivo
Description: as §1, with “sequentially.” for “sequentially. The American Psychiatric Association considers a significant feature of depression to be the decrease in reward responsiveness, indicating a loss of pleasure. The sucrose preference test is a well-established measure for assessing reward responsiveness in experimental animals.”

SD rats [3] = test: Open field test, chlorpromazine-induced depression model; type: in vivo; settings: 6 mg/kg
Description: as §1, with “After” for “The American Psychiatric Association considers a significant feature of depression to be”, “the” for “the decrease in reward responsiveness, indicating a loss of pleasure. The”, “preference test, we conducted an open field” for “preference”, “on the” for “is a well-established measure for assessing reward responsiveness in”

FAAH = biological target: T1, FAAH (Homo sapiens, UniProt O00519); test: In vitro FAAH enzyme inhibition activity assay (FAAH assay kit, fluorescently labeled substrate); type: biochemical
T1 construct: purchased
T1 sequence (O00519 1-579): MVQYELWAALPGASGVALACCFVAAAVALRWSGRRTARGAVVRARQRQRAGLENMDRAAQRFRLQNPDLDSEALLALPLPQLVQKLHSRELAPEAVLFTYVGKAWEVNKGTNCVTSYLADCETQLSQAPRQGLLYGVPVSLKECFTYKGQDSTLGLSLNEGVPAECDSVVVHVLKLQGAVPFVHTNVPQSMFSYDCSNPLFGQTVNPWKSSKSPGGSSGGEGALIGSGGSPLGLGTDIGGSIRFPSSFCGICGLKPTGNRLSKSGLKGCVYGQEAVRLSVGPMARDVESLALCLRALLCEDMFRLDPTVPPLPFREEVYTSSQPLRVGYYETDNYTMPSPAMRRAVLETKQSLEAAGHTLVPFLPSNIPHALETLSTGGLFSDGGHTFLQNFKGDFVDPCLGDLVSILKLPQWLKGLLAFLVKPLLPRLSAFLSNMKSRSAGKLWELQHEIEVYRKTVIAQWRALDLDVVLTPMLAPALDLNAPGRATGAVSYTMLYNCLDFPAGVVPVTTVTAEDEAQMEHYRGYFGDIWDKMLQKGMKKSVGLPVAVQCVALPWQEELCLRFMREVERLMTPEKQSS
Description: FAAH hydrolyzes AEA to form ethanolamine within cells. Different enzyme activities catalyze the formation of varying amounts of products from a fixed amount of substrate. The enzyme activity level can be assessed by measuring the amount of products generated. Based on this principle, experiments were designed in this invention. According to the FAAH assay kit instructions, a certain concentration of FAAH was diluted and added to a buffer solution along with a fluorescently labeled substrate. Compounds of various concentrations were then added, along with blank control groups and JZL-195 positive control groups. After the reaction, fluorescence analysis was performed using a plate reader, and the inhibition rate was calculated.

mice = test: Acetic acid writhing test in mice (analgesic activity); type: in vivo; settings: 5 mg/kg s.c
Description: Using the acetic acid writhing test in mice as a pain model to evaluate the analgesic activity of compound I-11. The experimental animal information and procedures are outlined below.
Healthy ICR mice, of clean grade, weighing 20-25 g. The animal facility complies with the requirements of a clean laboratory, with a temperature of 20-22° C., humidity of 40%˜70%, and controlled lighting on a 12-hour light/12-hour dark cycle (lighting from 8:00 to 20:00). Mice are housed in plastic cages (280×150×180 mm) with 10 mice per cage, separated by gender, and provided ad libitum access to food and water. The diet consists of experimental rodent pellets, and the drinking water is city tap water sterilized by high-temperature autoclaving. Mice are allowed a 7-day acclimatization period. All procedures involving animals are conducted following the guidelines of the International Association for the Study of Pain Ethics Committee. Mice are housed in the animal facility upon purchase.
Glacial acetic acid and physiological saline were obtained from the China Pharmaceutical University reagent repository. Compound I-11 was a laboratory-synthesized compound (purity>98%).
Mice were marked with saturated bitter solution, with the left front limb marked as number 1, left hind limb as number 2, right front limb as number 3, right hind limb as number 4, and head as number 5. Combinations such as head with left front limb as number 6, head with left hind limb as number 7, head with right front limb as number 8, head with right hind limb as number 9, and tail as number 10 were used for identification. Animals were divided into groups, with n=10 in each group, evenly distributed between males and females.
The experiment employed the acetic acid-induced writhing test in mice to investigate the analgesic activity of the samples. […] The number of writhing movements and the latency period of mice were observed and recorded 15 minutes after acetic acid injection, and the analgesic percentage was calculated. […]

Compound	pIC50 (FAAH; values given in μm [sic])	pIC50 (FAAH; values in nm)	other results
CN(C)CCC=C1c2ccccc2CCc2ccccc21 [Amitriptyline]	–	–	sucrose intake compared to the model group (in words) (SD rats [1]; high-dose I-11 (12 mg/kg), amitriptyline 6 mg/kg): significant increase in sucrose intake; Sucrose intake ratio (SD rats [1]; model rats, 6 mg/kg, two weeks of administration): 78.6 ± 4.6 %; immobility time versus model (in words) (SD rats [2]; Amitriptyline 6 mg/kg, I-11 medium and high dose, p<0.05): reduce the immobility time; Immobility Time (SD rats [2]; model rats, 6 mg/kg): 88.47 ± 4.64 s; Frequency of grooming (SD rats [3]): 4.3 ± 0.3 n; Frequency of upright (SD rats [3]): 10.6 ± 2.2 n; Times passing the grid (SD rats [3]): 58.9 ± 2.2 n; Total time in center (SD rats [3]): 4.6 ± 0.6 s
Cn1c(C(=O)N2CCC(C(=O)c3ccncc3)CC2)cc2cc(Cl)ccc21 [Compound I-1]	4.55	–	–
Cn1c(C(=O)N2CCC(C(=O)c3ccncc3)CC2)cc2ccccc21 [Compound I-2]	4.85	–	–
Cn1c(C(=O)N2CCC(C(=O)c3ccccn3)CC2)cc2cc(Cl)ccc21 [Compound I-3]	4.87	–	–
O=C(c1ccccn1)C1CCN(C(=O)c2cc3ccccc3o2)CC1 [Compound I-4, (1-(benzofuran-2-carbonyl)piperidin-4-yl)(pyridin-2-yl)methanone]	5.00	–	–
O=C(c1ccccn1)C1CCN(C(=O)c2cnc3ccccc3c2)CC1 [Compound I-5]	3.90	–	–
O=C(c1ccccn1)C1CCN(Cc2cnc3ccccc3c2)CC1 [Compound I-6, Pyridin-2-yl(1-(quinolin-3-ylmethyl)piperidin-4-yl)methanone]	3.88	–	–
Cn1c(C(=O)N2CCC(C(=O)c3ncco3)CC2)cc2cc(Cl)ccc21 [Compound I-7, (5-Chloro-1-methyl-1H-indol-2-yl)(4-(oxazole-2-carbonyl)piperidin-1-yl) methanone]	–	7.11	–
Cn1c(C(=O)N2CCC(C(=O)c3nccs3)CC2)cc2cc(Cl)ccc21 [Compound I-8, (5-chloro-1-methyl-1H-indol-2-yl)(4-(thiazol-2-carbonyl)piperidin-1-yl)methanone]	5.99	–	–
Cn1c(C(=O)N2CCC(C(=O)c3nc4ccccc4s3)CC2)cc2cc(Cl)ccc21 [Compound I-9]	–	6.55	–
Cn1c(C(=O)N2CCC(C(=O)c3ncc(-c4ccccc4)o3)CC2)cc2cc(Cl)ccc21 [Compound I-10, (5-chloro-1-methyl-1H-indol-2-yl)-(4-(5-phenyl-oxazol-2-carbonyl)piperidin-1-yl)methanone]	–	6.95	–
Cn1c(C(=O)N2CCC(C(=O)c3nnc(-c4cccc(Cl)c4)o3)CC2)cc2cc(Cl)ccc21 [Compound I-13, (5-chloro-1-methyl-1H-indol-2-yl)(4-(5-(3-chlorophenyl)-1,3,4-oxadiazol-2-carbonyl)piperidin-1-yl)methanone]	–	7.05	–
Cn1c(C(=O)N2CCC(C(=O)c3nnc(-c4ccco4)o3)CC2)cc2cc(Cl)ccc21 [Compound I-15, (5-chloro-1-methyl-1H-indol-2-yl)(4-(5-(furan-2-yl)-1,3,4-oxadiazol-2-carbonyl)piperidin-1-yl)methanone]	–	8.51	–
Cn1c(C(=O)N2CCC(C(=O)c3nnc(-c4cccs4)o3)CC2)cc2cc(Cl)ccc21 [Compound I-16, (5-chloro-1-methyl-1H-indol-2-yl) (4-(5-(thiophene-2-yl)-1,3,4-oxadiazol-2-carbonyl)piperidin-1-yl)methanone]	–	7.89	–
O=C(Oc1ccc([N+](=O)[O-])cc1)N1CCN(Cc2cccc(Oc3ccccc3)c2)CC1 [JZL-195, reference compound]	–	8.55	–
CN1CC[C@]23c4c5ccc(O)c4O[C@H]2[C@@H](O)C=C[C@H]3[C@H]1C5 [Morphine]	–	–	Inhibition (analgesic percentage, writhing) (mice): 100.0%; latency period (mice): 0 s; writhing count (mice; within 15 minutes after acetic acid): 0
